Data taken from patent US6534516B1, “Androgen receptor modulator compounds and methods” (Ligand Pharmaceuticals Incorporated, priority 1996, dated 2003).

Experiments:
MR = biological target: T1, MR (Homo sapiens, UniProt P08235); experiment: Co-transfection assay, cross-reactivity on MR; type: cell-based
T1 construct: expressed in transfected cells
T1 sequence (P08235 1-984): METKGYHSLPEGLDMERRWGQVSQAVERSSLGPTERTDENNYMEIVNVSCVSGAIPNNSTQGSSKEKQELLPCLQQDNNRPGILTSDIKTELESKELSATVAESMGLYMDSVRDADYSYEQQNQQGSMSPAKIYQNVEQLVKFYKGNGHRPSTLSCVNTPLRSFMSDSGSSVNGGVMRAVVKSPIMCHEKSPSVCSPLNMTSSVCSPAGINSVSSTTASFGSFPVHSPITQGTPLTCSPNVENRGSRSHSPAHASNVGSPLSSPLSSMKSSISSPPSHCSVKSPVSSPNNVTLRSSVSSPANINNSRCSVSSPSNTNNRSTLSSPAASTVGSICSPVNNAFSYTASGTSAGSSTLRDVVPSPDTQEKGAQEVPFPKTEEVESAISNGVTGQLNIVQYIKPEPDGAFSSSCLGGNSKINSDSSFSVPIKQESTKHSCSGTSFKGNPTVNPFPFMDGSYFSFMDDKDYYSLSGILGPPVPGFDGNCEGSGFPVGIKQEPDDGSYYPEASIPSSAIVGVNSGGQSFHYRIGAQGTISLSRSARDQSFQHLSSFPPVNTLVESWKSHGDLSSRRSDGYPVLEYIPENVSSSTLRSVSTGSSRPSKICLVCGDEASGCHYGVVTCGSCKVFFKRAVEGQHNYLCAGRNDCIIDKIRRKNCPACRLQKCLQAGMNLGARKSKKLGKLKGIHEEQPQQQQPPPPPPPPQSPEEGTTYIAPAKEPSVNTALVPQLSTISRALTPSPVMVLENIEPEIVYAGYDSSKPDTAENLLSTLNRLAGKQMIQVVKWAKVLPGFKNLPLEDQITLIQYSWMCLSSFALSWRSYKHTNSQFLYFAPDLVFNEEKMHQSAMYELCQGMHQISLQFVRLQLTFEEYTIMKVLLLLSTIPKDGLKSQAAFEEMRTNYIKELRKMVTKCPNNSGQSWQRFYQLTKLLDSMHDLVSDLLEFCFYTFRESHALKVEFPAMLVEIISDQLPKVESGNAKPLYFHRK

human AR = biological target: T2, human AR (Homo sapiens, UniProt P10275); experiment: cell-based; type: cell-based
T2 construct: expressed in transfected cells; host or cells: CV-1 cells (African green monkey kidney fibroblasts)
T2 sequence (P10275 1-920): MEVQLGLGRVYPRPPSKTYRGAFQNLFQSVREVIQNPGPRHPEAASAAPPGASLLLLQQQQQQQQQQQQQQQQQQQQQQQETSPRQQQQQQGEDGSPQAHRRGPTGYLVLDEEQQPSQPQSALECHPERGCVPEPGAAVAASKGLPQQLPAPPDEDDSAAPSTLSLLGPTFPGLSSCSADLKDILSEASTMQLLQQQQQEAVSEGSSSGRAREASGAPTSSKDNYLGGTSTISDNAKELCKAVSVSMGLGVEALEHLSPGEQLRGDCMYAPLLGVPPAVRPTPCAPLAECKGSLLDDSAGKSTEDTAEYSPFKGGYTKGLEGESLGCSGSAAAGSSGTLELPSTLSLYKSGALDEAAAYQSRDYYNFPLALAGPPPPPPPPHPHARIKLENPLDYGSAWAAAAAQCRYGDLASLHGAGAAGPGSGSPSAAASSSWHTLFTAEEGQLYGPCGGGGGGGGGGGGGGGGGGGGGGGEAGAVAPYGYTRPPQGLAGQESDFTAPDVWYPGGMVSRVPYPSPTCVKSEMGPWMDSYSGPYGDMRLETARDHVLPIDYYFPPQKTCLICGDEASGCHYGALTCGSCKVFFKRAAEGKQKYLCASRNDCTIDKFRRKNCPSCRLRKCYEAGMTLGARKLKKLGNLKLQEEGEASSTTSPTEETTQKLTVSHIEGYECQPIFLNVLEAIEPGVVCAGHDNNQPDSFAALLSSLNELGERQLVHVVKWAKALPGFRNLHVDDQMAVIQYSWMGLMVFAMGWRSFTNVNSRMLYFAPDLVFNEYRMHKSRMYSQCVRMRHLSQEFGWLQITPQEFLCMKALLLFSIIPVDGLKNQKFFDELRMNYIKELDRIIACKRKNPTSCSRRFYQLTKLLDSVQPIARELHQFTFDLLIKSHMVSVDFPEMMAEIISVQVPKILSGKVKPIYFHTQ
Source text: The co-transfection assay provides a method for identifying functional agonists and partial agonists which mimic, or antagonists which inhibit, the effect of native hormones, and quantifying their activity for responsive IR proteins. In this regard, the co-transfection assay mimics an in vivo system in the laboratory. Importantly, activity in the co-transfection assay correlates very well with known in vivo activity, such that the co-transfection assay functions as a qualitative and quantitative predictor of a tested compounds in vivo pharmacology. See, e.g., T. Berger et al. 41 J. Steroid Biochem. Molec.
CV-1 cells (African green monkey kidney fibroblasts) were cultured in the presence of Dulbecco's Modified Eagle Medium (DMEM) supplemented with 10% charcoal resin-stripped fetal bovine serum then transferred to 96-well microtiter plates one day prior to transfection.
The reporter plasmid, MTV-LUC, contains the cDNA for firefly luciferase (LUC) under control of the mouse mammary tumor virus (MTV) long terminal repeat, a conditional promoter containing an androgen response element. See e.g., Berger et al. supra. In addition, pRS-β-Gal, coding for constitutive expression of E. coli β-galactosidase (β-Gal), was included as an internal control for evaluation of transfection efficiency and compound toxicity.
Three to four replicates were used for each sample.
After 40 hours, the cells were washed with PBS, lysed with a Triton X-100-based buffer and assayed for LUC and β-Gal activities using a luminometer or spectrophotometer, respectively. For each replicate, the normalized response (NR) was calculated as:
where β-Gal rate=β-Gal•1×10^−5/β-Gal incubation time.

With `CC1(C)CCc2cc3c(C(F)(F)F)c(F)c(=O)[nH]c3cc2N1` [Compound 105, 7-Fluoro-1,2,3,4-tetrahydro-2,2-dimethyl-6-trifluoromethyl-8-pyridono[5,6-g]quinoline] the IC50 (MR) was 2260 nM, the “AR Agonist CV-1 Cells Efficacy” value (human AR) was 39 ± 6% and the EC50 (human AR) was 125 ± 28 nM. The “AR Antagonist CV-1 Cells Efficacy” value (human AR; antagonist mode, DHT at its EC50, % of maximal inhibition, na = not active) was 39 ± 6%, the IC50 (human AR; read-out: AR Antagonist CV-1 Cells Potency) was 34 ± 14 nM and the “AR activity profile (in words)” value (human AR; summary of Tables 1 and 2) was “mixed AR agonists/antagonists”.
